Results on eight molecules are retold here after publication PMC10586260 (ACS Omega, 2023).

For series [1], the system named is PfINDO. In words: SYBR green I antiplasmodial growth inhibition assay. The format is cell-based. Conditions: Plasmodium falciparum.
The test system of series [2] is Pf3D7. The description is as above. The class given is cell-based. The note with it: Plasmodium falciparum.
The nature of series [3]: MTT cytotoxicity assay. The class given is cell-based, Human. Conditions: human, HUH-7 cells. (In general: Tetrazolium assays rely on reduction of a dye to a coloured formazan, in cell work by metabolically active cells.)
Series [4] in a line: MTT cytotoxicity assay. The format is cell-based, Human. Conditions: human, HEK293 cells.
Series [5] deals with PfCam3.1^R539T (MRA1240). The series is described as follows: SYBR green I antiplasmodial growth inhibition assay. The class given is cell-based. Conditions: Plasmodium falciparum.
Series [6] has as its system P. falciparum strains (Pf3D7, PfINDO, PfCam3.1^R539T). The series is described as follows: SYBR green I antiplasmodial assay, several strains stated together. The format is cell-based. Conditions: Plasmodium falciparum, read-out: IC50s against all three strains of Plasmodium.
Series [7] has as its system PfINDO late schizonts. In words: Egress/invasion inhibition assay. The note with it: segmental schizonts, 8 h at 2× IC50, then 48 h drug free. The format is cell-based, Plasmodium falciparum.
For series [8] the following is noted: 700 mg dosage in humans, MDR-TB treatment; cited from earlier work.
Series [9] has as its target T1, PfGAP50 (Plasmodium falciparum, UniProt Q8I2X3).
T1 sequence (Q8I2X3 24-365 limits assumed): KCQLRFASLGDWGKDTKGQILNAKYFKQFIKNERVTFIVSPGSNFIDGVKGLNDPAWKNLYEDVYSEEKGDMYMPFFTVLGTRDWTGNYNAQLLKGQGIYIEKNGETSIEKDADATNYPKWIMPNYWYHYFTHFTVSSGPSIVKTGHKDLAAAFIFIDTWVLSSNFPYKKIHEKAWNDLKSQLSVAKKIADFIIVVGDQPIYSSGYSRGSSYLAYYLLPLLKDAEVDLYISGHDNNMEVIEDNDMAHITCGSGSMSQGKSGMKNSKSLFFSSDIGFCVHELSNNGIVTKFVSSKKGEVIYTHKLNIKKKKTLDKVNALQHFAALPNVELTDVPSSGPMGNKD
The series is described as follows: Surface plasmon resonance, PfGAP50 immobilized on CM5 chip, 1:1 binding model. The note with it: KD (SPR, GAP50), 1:1 Langmuir binding model. In general terms: In SPR one partner is held on a chip, and binding of the other changes the refractive index at the surface.

The subject of series [10] is P. falciparum (MRA1240). In words: Fixed-ratio drug combination assay. The note with it: in combination with PYR, MFQ, and ART. The format is cell-based, Plasmodium falciparum.
The subject of series [11] is PfCam3.1^R539T early rings (0–3 h p.i.). In words: Ring-stage survival assay. The format is cell-based, Plasmodium falciparum. The note with it: 10× IC50, 6 h treatment, 66 h recovery.
The subject of series [12] is P. bergheiANKA. In words: In vivo antimalarial study. Also noted: species or system mice. The note with it: 50 mg/kg oral, 4 consecutive days.
Series [13] concerns PfINDO. In words: Giemsa microscopy of parasite morphology after treatment at IC50. The format is cell-based, Plasmodium falciparum. The note with it: ring-stage parasites (6–12 h p.i.) treated at IC50 up to 57 h.
For series [14], the system named is HEK293. In words: MTT cytotoxicity assay. The class given is cell-based, Human. Conditions: for selectivity index for P. falciparum parasites: human kidney and liver cell lines vs parasite; for Selectivity index A: CC50 HEK293/IC50PfINDO.
Series [15] relates to HUH-7. In words: MTT cytotoxicity assay. The class given is cell-based, Human. The note with it: CC50PfHUH7/IC50PfINDO.
Where [16] appears, read: read-out: IC50 (nM) against Pf strains INDO.
Setting [17] is: 3D7, read-out: IC50 (nM) against Pf strains 3D7.
Where [18] appears, read: read-out: IC50 (nM) against Pf strains Cam3.1^R539T.

Several values for one entry are separate records, joined by “and”; a condition that tells them apart may be missing. Equal entries are not always repeated. Entries after “also recorded” stand apart in the source; their conditions may differ. Where two headings read alike, the source gives them in different places.

As usually defined, the CC50 is the concentration giving 50% cytotoxicity. A high value points to lower toxicity to the cells. As to `C[C@@H]1CC[C@H]2[C@@H](C)C(=O)O[C@@H]3O[C@@]4(C)CC[C@@H]1[C@]32OO4` [Artemisinin], the IC50 was determined as 10 ± 2 nM in series [1] (setting [16]), 13 ± 4 nM in [2] (setting [17]) and 15 ± 2 nM in series [5] (setting [18]). The CC50 at 24 h in series [3] and in series [4] was over 100 µM throughout.
A word on the Cmax: it is the peak of the concentration-time curve. What is called Kd is the free concentration of one partner at which half of the binding sites on the other are occupied at equilibrium, for simple one-to-one binding. For `COc1nc2ccc(Br)cc2cc1[C@@H](c1ccccc1)[C@@](O)(CCN(C)C)c1cccc2ccccc12` [Bedaquiline, (1R,2S)-1-(6-bromo-2-methoxyquinolin-3-yl)-4-(dimethylamino)-2-naphthalen-1-yl-1-phenylbutan-2-ol], the values for the IC50 in series [6], in [2] (setting [17]) and in series [5] (setting [18]) were at most 1.5 µM, 1210 ± 22.4 nM and 769 ± 73.6 nM, respectively. Also, the “effect on merozoite egress and invasion” value in [7] is on record as “schizontocidal activity; also recorded: completely prevented invasion/schizont rupture”. Moreover, in series [8], the Cmax was 6470 ng/mL. Further, the half-maximal cytotoxic concentration (CC50) at 24 h in series [3] and in [4] was over 400 µM each time. Besides, the Kd in series [9] was < 75 µM and 9.27 µM. For the same molecule, the “interaction by average ∑FIC” value in [10] is “additive (∑FIC 1–2.0)”. For the same molecule, the “effect on early rings in RSA” value in series [11] was “showed activity against early rings”. The “mice surviving / cured” value in series [12] is recorded as “three out of seven”. The “suppression of % parasitemia” value in series [12] was “substantial suppression of parasitemia; also recorded: complete suppression of % parasitemia by day 19”. Also, in series [13], the “effect on parasite morphology and development” value is given as “permitted parasites to develop normally while preventing merozoites from invading”.
As to `N=C(N)NCCCCC(=O)Nc1cc(C(F)(F)F)cc(NC(=O)c2cc(C(=O)Nc3cc(C(F)(F)F)cc(NC(=O)CCCCNC(=N)N)c3O[C@@H]3CCNC3)ncn2)c1O[C@@H]1CCNC1` [Brilacidin, 4-N,6-N-bis[3-(5-carbamimidamidopentanoylamino)-2-[(3R)-pyrrolidin-3-yl]oxy-5-(trifluoromethyl)phenyl]pyrimidine-4,6-dicarboxamide], the IC50 in series [6] was at most 1.5 µM; in series [1] (setting [16]), 634 ± 153 nM; in series [2] (setting [17]), 405 ± 63 nM; in series [5] (setting [18]), 728 ± 65.2 nM. Moreover, the “effect on merozoite egress and invasion” value in series [7] is reported as “completely prevented invasion/schizont rupture”. In addition, the CC50 at 24 h in series [3] and in series [4] was over 200 µM throughout. Besides, in series [9], the Kd was < 75 µM and 2.81 µM. Besides, the “selectivity index for P. falciparum parasites” value in [14] was over 100 fold. In series [10], the “interaction by average ∑FIC” value was “additive (∑FIC 1–2.0)”. Besides, the “effect on early rings in RSA” value in [11] is recorded as “cause retardation in the growth cycle but are not able to kill early rings”. The “effect on parasite morphology and development” value in [13] is on record as “partial suppression of invasion”.
In the case of `CCN(CC)CCCC(C)Nc1ccnc2cc(Cl)ccc12` (centres unmarked) [Chloroquine], the IC50 in series [1] (setting [16]) was 290 ± 20 nM; in series [2] (setting [17]) it was 14 ± 5 nM; in series [5] (setting [18]) it was 55 ± 4 nM. The “Selectivity index B” value in [15] amounted to 201.86. Further, the CC50 at 24 h in series [3] came out at 58.5 ± 4.73 µM; in series [4], 45.7 ± 3.12 µM. The “Selectivity index A” value in series [14] was 157.55.
With `Oc1cccc(C(Nc2nccs2)c2ccc3cccnc3c2O)c1` (centres unmarked) [MMV642550, 7-[(3-hydroxyphenyl)-(1,3-thiazol-2-ylamino)methyl]quinolin-8-ol], the IC50 is at most 1.5 µM in series [6], 986 ± 159 nM in series [1] (setting [16]), 393 ± 6.45 nM in series [2] (setting [17]) and 1400 ± 97 nM in series [5] (setting [18]). Further, the results for the “effect on merozoite egress and invasion” value in series [7] and in [7] (listed as 642550) were “only partial inhibition of parasite invasion” and “slowed the schizont rupture”, respectively. For the same molecule, the CC50 at 24 h in series [3] and in [4] was over 200 µM throughout. In [9], this molecule came in with a dissociation constant Kd of under 75 µM. In [14], the “selectivity index for P. falciparum parasites” value is over 100 fold. The “effect on parasite morphology and development” value in series [13] is on record as “permitted Pf development”.
For `NC(N)=Nc1ccc(-c2ccc(-c3ccc(N=C(N)N)c(Cl)c3)o2)cc1Cl` [MMV688271, 2-[2-chloro-4-[5-[3-chloro-4-(diaminomethylideneamino)phenyl]furan-2-yl]phenyl]guanidine], the IC50 in series [6] was at most 1.5 µM; in series [1] (setting [16]) it was 284 ± 24.7 nM; in [2] (setting [17]), 258 ± 54.2 nM; in series [5] (setting [18]), 387 ± 39.6 nM. For the same molecule, the “effect on merozoite egress and invasion” value in [7] was “schizontocidal activity; also recorded: completely prevented invasion/schizont rupture”. Moreover, the “Selectivity index B” value in [15] is given as 119.08. The CC50 at 24 h in series [3] worked out at 29.7 ± 3.76 µM; in [4], 119 ± 33.7 µM. For the same molecule, the Kd in series [9] is < 75 µM and 20 µM. The “Selectivity index A” value in series [14] is 478.31. Moreover, the “selectivity index for P. falciparum parasites” value in series [14] is recorded as over 100 fold. Also, the “interaction by average ∑FIC” value in series [10] is “additive (∑FIC 1–2.0)”. Further, the “effect on parasite morphology and development” value in [13] is on record as “inhibited schizont egression”.
Consider `O=C1[C@H](CC[C@H](O)c2ccc(F)cc2)[C@@H](c2ccc(O)cc2)N1c1ccc(F)cc1` [MMV1581377, (3R,4S)-1-(4-fluorophenyl)-3-[(3S)-3-(4-fluorophenyl)-3-hydroxypropyl]-4-(4-hydroxyphenyl)azetidin-2-one], for which the affinity in series [9], expressed as Kd, was 1.16 µM. In other words, the single-digit micromolar range.
`CC(C)(C)NC(=O)[C@@H]1CN(Cc2cnc3occc3c2)CCN1C[C@@H](O)C[C@@H](Cc1ccccc1)C(=O)N[C@H]1c2ccccc2C[C@H]1O` [MMV1782353, (2S)-1-[(2S,4R)-4-benzyl-2-hydroxy-5-[[(1S,2R)-2-hydroxy-2,3-dihydro-1H-inden-1-yl]amino]-5-oxopentyl]-N-tert-butyl-4-(furo[2,3-b]pyridin-5-ylmethyl)piperazine-2-carboxamide]: the IC50 in series [1] (setting [16]) was 562 ± 171 nM; in series [1] (read-out: IC50 PfINDO), under 1000 nM; in [2] (setting [17]), 670 ± 70.2 nM; in [2] (read-out: IC50 Pf3D7) it was under 1000 nM; in [5] (setting [18]), 14300 ± 210 nM; in series [5] (read-out: IC50 PfCam3.1^R539T), over 1000 nM. Moreover, the results for the “effect on merozoite egress and invasion” value in series [7] and in [7] (listed as 1782353) were “only partial inhibition of parasite invasion” and “slowed the schizont rupture”, respectively. In addition, the CC50 at 24 h in series [3] and in [4] was over 200 µM in each case. Besides, the “selectivity index for P. falciparum parasites” value in series [14] is reported as over 100 fold. In series [13], the “effect on parasite morphology and development” value was “permitted Pf development”.
